Laboratory results reported in patent publication US20150181901A1, “Compositions and Methods for Tissue Storage” (priority 2012, published 2015).
Several values for one entry are separate records, joined by “and”; a condition that tells them apart may be missing. Equal values may be shown once.

How the values were obtained:
[1] = Freeze/thaw cycling of meat soaked in trehalose solution: fluid loss and weight loss (beef); conditions: for weight loss: post 3 freeze/thaw cycles, first week (FIG. 4), 0% trehalose about 18%
Method: (§1) Variables included the high and low temperatures of the temperature range, and frequency of the freeze/thaw cycles. In one embodiment, treated meat samples were placed in a minus 40 degrees C. freezer for 24 hours, followed by room temperature for 6 hours, which was followed by 18 hours at 0.5 to 5.0 degrees C., in a refrigerator. This cycle was immediately followed by minus 40 degrees C. freezer for 24 h, room temperature for 6 h, which was followed by 18 hours at 0.5 to 5.0 degrees C., in a refrigerator. Chicken breast fillet, pork chops, and London broil beef, were obtained from local suppliers and were cut in water. Each type of meat was cut into four even-sized pieces, and the weight was recorded. Each piece was immersed separately in either water or in test solution, e.g., trehalose or saline, for 12 h. The meat was removed from the water, and excess water was blotted off. Place each sample in a Ziploc® plastic bag. Weights were recorded. The weighed samples were set in a container, and placed in a freezer, where each sample was at the same level (same level relative to the floor of the freezer). The freezer (minus 40 degrees C.) was Puffer Hubbard Model #4017A-U-A, Harris Manufacturing Co., North Billerica, Mass. […] Then, the following steps were used: Repeat Steps 1 to 4 until a total of 14 days have passed. Step 1. After 24 h in the freezer, remove the container bearing all of the samples. Take photographs of the samples and record the date. Thawing occurs when the meat is taken from the freezer and left in the refrigerator. Although the meat is completely thawed prior to 24 hours of incubation in the refrigerator, the time of 24 hours was used to standardize the procedure. Step 2. Place all samples (still in the same container) in refrigerator. Step 3. After in the refrigerator 24 h, then remove the container with all the samples, and take photos and record the date. Step 4. Place samples, still in the same container, in the freezer. As mentioned above, repeat Steps 1 to 4 until a total of 14 days have passed. Step 5. After the last sample photos were taken, samples were removed from its bag, and the weight was recorded after removing excess ice from the sample. The ice is left in the bag. Replace sample in Ziploc® bag. Place all bags at room temperature until all the ice has melted, and pour fluid into clear plastic tube with graduated side (fluid from each bag), and record the volumes of the fluid. Alternatively, volume can be determined with a pipette. Step 6. Place all weighed meat samples into the same Ziploc® bag, and place back in the refrigerator to thaw. After thawing, remove the meat samples from each bag, and pour excess fluid into graduated cylinder tubes (the tubes that held the ice that had melted), and record additional volumes. Between the first week (three freeze/thaw cycles) and the second week (three more freeze/thaw cycles), there was no re-exposure to trehalose. All samples were removed from the refrigerator. Liquid was in most of the sample bags. Fluid was removed by a pipette and the volume was recorded, and the meat sample was weighed. Samples of about 1-2 grams were taken using a no. 10 scalpel, and placed in formalin. FIG. 6 discloses the volume of fluid lost during the second week of freeze/thaw cycles.

[2] = Freeze/thaw cycling of meat soaked in trehalose solution: fluid loss and weight loss (chicken)
Method: as §1

[3] = Freeze/thaw cycling of meat soaked in trehalose solution: fluid loss and weight loss (pork); conditions: for weight loss: post 3 freeze/thaw cycles, first week (FIG. 4), 0% trehalose about 10%
Method: as §1

[4] = 0%, 5%, 10%, 15% trehalose, three freeze/thaw cycles, first week (FIG. 1)
[5] = cumulative, first and second week (FIG. 12)
[6] = second week of freeze/thaw cycles (FIG. 8)
[7] = second week of freeze/thaw cycles, no re-exposure to trehalose

OC[C@H]1O[C@H](O[C@H]2O[C@H](CO)[C@@H](O)[C@H](O)[C@H]2O)[C@H](O)[C@@H](O)[C@@H]1O [trehalose, trehalose dihydride]
effect of trehalose concentration on volume of fluid lost [1, 4]: Increasing the concentration of trehalose resulted in decreasing volumes of fluid lost | loss of water/10 grams of meat ([1]; 10% trehalose, first week (FIG. 5), 0% trehalose about 1.8): about 0.9 mL/10 grams of meat | fluid loss for the first week relative to fluid loss for the second week ([1]; at each respective trehalose value (FIG. 16)): 2-3 times | trehalose concentration with maximal reduction in cumulative fluid loss ([1]; cumulative, first and second week): 10% and 10-15% | trehalose concentration with maximal effect on cumulative weight loss [1, 5]: 10% and 10-15% | effect of trehalose on weight loss ([1]; first week (FIG. 19)): reduction was progressively effective for 5%, 10%-15% trehalose | effect of trehalose on weight loss ([1]; second week (FIG. 19)): weight reduction seemed to plateau when trehalose was in the range of 5-15% trehalose | trehalose concentration with lowest weight loss [1, 6]: 15% | trehalose concentration with maximal effect on reducing fluid loss [1, 7]: 10% | weight loss ([1]; soaked in 5% trehalose): ~15% | weight loss ([1]; soaked in 10% trehalose): about 8% | weight loss ([1]; soaked in 15% trehalose): about 10% | loss of water/10 grams of meat ([2]; chicken, 15% trehalose, first week (FIG. 5), 0% trehalose about 1.8): 0.47 mL/10 grams of meat | trehalose concentration with maximal effect on cumulative weight loss ([2]; chicken, cumulative, first and second week (FIG. 12)): 15% | effect of trehalose on weight loss ([2]; chicken, first week (FIG. 17)): reduction was about the same (plateau in trehalose effect) for 5%, 10%, and 15% trehalose | effect of trehalose on weight loss ([2]; chicken, second week (FIG. 17)): weight reduction by trehalose was only found at 10% and 15% trehalose | trehalose concentration with lowest weight loss ([2]; chicken, second week of freeze/thaw cycles (FIG. 8)): 15% | trehalose concentration with maximal effect on reducing fluid loss ([2]; chicken, second week of freeze/thaw cycles, no re-exposure to trehalose): 15% | weight loss ([2]; chicken, soaked in 5%, 10%, or 15% trehalose, post-soak weight vs post 3 freeze/thaw cycles, first week (FIG. 4), 0% trehalose 18%): 10-11% | effect of trehalose concentration on volume of fluid lost ([2]; poultry, 0%, 5%, 10%, 15% trehalose, three freeze/thaw cycles, first week (FIG. 1)): Increasing the concentration of trehalose resulted in decreasing volumes of fluid lost | effect of trehalose concentration on volume of fluid lost [3, 4]: Increasing the concentration of trehalose resulted in decreasing volumes of fluid lost | loss of water/10 grams of meat ([3]; 15% trehalose, first week (FIG. 5), 0% trehalose 1.0): 0.4 mL/10 grams of meat | trehalose concentration with maximal effect on cumulative weight loss [3, 5]: 15% | effect of trehalose on weight loss ([3]; first week (FIG. 18)): reduction was progressively effective for 5%, 10%, and 15% trehalose | effect of trehalose on weight loss ([3]; second week (FIG. 18)): weight reduction seemed to plateau when trehalose was in the range of 5-15% trehalose | trehalose concentration with lowest weight loss [3, 6]: 5% (or 15%) | trehalose concentration with maximal effect on reducing fluid loss [3, 7]: 15% | weight loss ([3]; soaked in 5% trehalose): about 9% | weight loss ([3]; soaked in 10% trehalose): about 8% | weight loss ([3]; soaked in 15% trehalose): about 5%
